Measured values: patent US20260365670A1, “EGFR INHIBITORS AND USES THEREOF” (DIZAL (JIANGSU) PHARMACEUTICAL CO., LTD., priority 2022, published 2026)
Where two headings read alike, the source gives them in different places.

How the values were obtained:
[1] = target: T1, EGFR[T790M/C797S/d746-750] (Homo sapiens, UniProt P00533, C797S/DEL746-750/T790M); assay: Inhibition of EGFR[T790M/C797S/d746-750] biochemical enzymatic activity (HTRF); settings: EGFR T790M-C797S-Del19, 1 mM ATP, 1 h, room temperature, read-out: IC50 (nM) @T790M - C797S - Del19
T1 construct: purchased Carna Bio
Summary of the method: (§1)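 Compounds at varying concentrations were tested against each EGFR form using 1 mM ATP and 1 μM TK Substrate-biotin. Reactions ran 1 h at room temperature in Mg2+/Mn2+ buffer with CHAPS, DTT and 0.5% DMSO. Time-resolved fluorescence gave IC50 by four-parameter fit.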

[2] = target: T2, EGFR (C797S L858R) (Homo sapiens, UniProt P00533, C797S/L858R); assay: Inhibition of EGFR (C797S L858R) biochemical enzymatic activity (HTRF); settings: EGFR L858-C797S, 1 mM ATP, 1 h, room temperature, read-out: IC50 (nM) @L858-C797S
T2 construct: purchased signalchem
Summary of the method: as §1

[3] = target: T3, EGFR L858R/T790M (Homo sapiens, UniProt P00533, L858R/T790M); assay: Inhibition of EGFR L858R/T790M biochemical enzymatic activity (HTRF); settings: EGFR L858R-T790M, 1 mM ATP, 1 h, room temperature, read-out: IC50 (nM) @L858R-T790M
T3 construct: purchased Carna Bio
Summary of the method: as §1

[4] = target: T4, EGFR (d746-750 C797S) (Homo sapiens, UniProt P00533, C797S/DEL746-750); assay: Inhibition of EGFR (d746-750 C797S) biochemical enzymatic activity (HTRF); settings: EGFR Del19-C797S, 1 mM ATP, 1 h, room temperature, read-out: IC50 (nM) @Del19-C797S
T4 construct: purchased signalchem
T4 sequence (P00533 with tags, fused parts or gaps DEL746-750/C797S limits assumed): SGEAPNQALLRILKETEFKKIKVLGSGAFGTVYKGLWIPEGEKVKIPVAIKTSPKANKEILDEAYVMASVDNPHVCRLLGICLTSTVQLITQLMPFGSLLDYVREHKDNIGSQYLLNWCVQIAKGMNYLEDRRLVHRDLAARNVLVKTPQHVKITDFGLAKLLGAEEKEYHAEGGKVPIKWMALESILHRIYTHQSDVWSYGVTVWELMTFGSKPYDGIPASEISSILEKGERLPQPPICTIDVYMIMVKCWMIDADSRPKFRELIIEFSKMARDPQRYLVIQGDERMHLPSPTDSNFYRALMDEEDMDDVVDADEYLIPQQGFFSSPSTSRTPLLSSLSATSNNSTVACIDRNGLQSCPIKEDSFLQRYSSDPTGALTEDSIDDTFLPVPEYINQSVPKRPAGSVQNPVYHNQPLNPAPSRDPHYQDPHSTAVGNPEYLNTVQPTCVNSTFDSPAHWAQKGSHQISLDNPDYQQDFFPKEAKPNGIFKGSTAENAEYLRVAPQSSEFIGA
Summary of the method: as §1

[5] = target: T5, EGFR Exon19Del/T790M (Homo sapiens, UniProt P00533, DEL746-750/T790M); assay: Inhibition of EGFR Exon19Del/T790M biochemical enzymatic activity (HTRF); settings: EGFR Del19-T790M, 1 mM ATP, 1 h, room temperature, read-out: IC50 (nM) @Del19-T790M
T5 construct: purchased Carna Bio
T5 sequence (P00533 with tags, fused parts or gaps DEL746-750/T790M limits assumed): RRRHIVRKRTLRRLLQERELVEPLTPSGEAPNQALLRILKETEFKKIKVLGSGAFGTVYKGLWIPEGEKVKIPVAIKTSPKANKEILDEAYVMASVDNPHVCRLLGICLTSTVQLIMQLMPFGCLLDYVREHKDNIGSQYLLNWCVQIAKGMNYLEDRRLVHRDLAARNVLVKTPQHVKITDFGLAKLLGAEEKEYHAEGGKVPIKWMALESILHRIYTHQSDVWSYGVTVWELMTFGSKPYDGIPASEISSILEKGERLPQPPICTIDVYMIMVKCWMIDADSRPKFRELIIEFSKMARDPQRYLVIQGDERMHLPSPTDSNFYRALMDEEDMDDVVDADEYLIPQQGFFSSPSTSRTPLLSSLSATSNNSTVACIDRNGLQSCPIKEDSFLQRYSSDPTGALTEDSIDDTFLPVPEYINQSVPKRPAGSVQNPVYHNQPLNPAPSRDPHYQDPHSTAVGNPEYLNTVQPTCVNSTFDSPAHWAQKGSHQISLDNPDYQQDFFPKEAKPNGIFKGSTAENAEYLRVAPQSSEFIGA
Summary of the method: as §1

[6] = test system: Ba/F3 cells expressing EGFR mutations; assay: Cell proliferation assay, Ba/F3 cells expressing EGFR mutations (CellTiter-Glo, 72 hours); type: cell-based; settings: CellTiter-Glo
Summary of the method: (§2)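 Luminescent viable-cell counts were taken on a day 0 plate at dosing and again at endpoint. Proliferation was calculated as (sample − G0)/(DMSO − G0). Seeding was 5000 Ba/F3 or 500 PC-9 cells per well in RPMI1640, followed by overnight attachment and serial compound dilutions. The GI50 was fitted.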

[7] = target: T6, EGFR Exon19Del (Homo sapiens, UniProt P00533, DEL746-750); assay: Inhibition of EGFR Exon19Del biochemical enzymatic activity (HTRF); settings: EGFR Del19, 1 mM ATP, 1 h, room temperature, read-out: IC50 @Del19
T6 construct: purchased Carna Bio
Summary of the method: as §1

[8] = test system: PC-9; assay: Cell proliferation assay, PC-9 cells (CellTiter-Glo, 72 hours); type: cell-based; settings: PC9 cells, CellTiter-Glo, read-out: PC9 GI50
Summary of the method: as §2

[9] = target: T7, EGFR wild type (Homo sapiens, UniProt P00533); assay: Inhibition of EGFR wild type biochemical enzymatic activity (HTRF); settings: EGFR WT, 1 mM ATP, 1 h, room temperature, read-out: IC50 (nM) @WT
T7 construct: purchased Carna Bio
T7 sequence (P00533 25-1210): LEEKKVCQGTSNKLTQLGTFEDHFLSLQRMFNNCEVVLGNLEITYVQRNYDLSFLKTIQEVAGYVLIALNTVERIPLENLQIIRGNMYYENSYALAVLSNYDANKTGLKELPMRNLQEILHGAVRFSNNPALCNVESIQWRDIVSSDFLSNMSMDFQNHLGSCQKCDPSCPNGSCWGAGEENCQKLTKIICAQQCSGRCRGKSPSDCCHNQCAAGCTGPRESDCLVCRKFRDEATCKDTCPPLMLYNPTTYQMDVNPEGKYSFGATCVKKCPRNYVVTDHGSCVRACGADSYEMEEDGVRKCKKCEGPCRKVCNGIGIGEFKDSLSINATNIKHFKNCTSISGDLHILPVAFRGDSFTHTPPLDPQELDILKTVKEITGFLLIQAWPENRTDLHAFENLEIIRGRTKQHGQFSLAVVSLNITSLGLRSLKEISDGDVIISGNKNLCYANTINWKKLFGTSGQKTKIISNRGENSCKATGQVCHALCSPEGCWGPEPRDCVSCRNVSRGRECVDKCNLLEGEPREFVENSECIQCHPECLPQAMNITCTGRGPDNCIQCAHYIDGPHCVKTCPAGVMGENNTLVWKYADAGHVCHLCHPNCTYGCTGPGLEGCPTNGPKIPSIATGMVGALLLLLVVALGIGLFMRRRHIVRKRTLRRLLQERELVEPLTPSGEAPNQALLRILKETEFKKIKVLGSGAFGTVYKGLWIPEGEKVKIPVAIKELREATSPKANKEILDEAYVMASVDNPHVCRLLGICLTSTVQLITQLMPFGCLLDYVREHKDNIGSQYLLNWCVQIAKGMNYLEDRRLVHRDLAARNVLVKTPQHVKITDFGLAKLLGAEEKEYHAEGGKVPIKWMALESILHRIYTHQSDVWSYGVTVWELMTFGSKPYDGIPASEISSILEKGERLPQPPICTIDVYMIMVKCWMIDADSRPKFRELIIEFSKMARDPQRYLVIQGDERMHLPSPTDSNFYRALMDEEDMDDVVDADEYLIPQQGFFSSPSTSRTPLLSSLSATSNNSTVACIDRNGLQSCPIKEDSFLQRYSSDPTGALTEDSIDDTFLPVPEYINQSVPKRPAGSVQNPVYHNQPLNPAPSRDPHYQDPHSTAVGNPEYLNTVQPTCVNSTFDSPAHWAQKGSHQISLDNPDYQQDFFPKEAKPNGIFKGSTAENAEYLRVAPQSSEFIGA
Summary of the method: as §1

[10] = target: T8, EGFR L858R (Homo sapiens, UniProt P00533, L858R); assay: Inhibition of EGFR L858R biochemical enzymatic activity (HTRF); settings: 1 mM ATP, 1 h, room temperature, read-out: IC50 (nM) @L858R
T8 construct: purchased Carna Bio
T8 sequence (P00533 25-1210 L858R): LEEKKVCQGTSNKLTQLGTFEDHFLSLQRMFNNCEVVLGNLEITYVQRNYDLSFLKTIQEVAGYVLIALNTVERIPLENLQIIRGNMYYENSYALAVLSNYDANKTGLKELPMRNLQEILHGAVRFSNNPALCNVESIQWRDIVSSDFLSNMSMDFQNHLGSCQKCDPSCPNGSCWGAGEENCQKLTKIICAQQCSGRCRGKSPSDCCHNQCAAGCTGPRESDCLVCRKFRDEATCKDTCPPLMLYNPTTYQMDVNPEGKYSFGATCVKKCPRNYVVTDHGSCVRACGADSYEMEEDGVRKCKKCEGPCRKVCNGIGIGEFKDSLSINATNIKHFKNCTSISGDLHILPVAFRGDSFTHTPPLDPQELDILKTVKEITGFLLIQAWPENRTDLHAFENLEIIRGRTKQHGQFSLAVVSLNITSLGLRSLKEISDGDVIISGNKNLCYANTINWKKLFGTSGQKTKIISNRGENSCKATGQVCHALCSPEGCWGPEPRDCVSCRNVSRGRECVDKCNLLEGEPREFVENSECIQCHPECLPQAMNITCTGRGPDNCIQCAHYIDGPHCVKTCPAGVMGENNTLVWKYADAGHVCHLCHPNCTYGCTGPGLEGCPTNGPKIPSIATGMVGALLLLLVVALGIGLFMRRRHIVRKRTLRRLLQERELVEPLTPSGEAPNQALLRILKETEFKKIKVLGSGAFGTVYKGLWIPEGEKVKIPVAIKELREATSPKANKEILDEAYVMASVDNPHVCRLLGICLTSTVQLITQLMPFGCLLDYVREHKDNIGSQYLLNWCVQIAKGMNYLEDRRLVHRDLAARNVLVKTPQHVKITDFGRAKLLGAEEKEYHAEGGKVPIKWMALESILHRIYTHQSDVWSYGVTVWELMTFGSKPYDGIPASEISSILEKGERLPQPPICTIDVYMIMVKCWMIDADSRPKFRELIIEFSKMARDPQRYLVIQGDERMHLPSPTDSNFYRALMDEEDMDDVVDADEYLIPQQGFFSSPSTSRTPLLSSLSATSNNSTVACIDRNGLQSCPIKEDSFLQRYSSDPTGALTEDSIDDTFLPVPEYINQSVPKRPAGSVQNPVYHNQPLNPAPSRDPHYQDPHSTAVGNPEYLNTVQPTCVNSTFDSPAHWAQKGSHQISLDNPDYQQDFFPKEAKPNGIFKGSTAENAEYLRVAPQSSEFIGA
Summary of the method: as §1

[11] = test system: A-431; assay: Cell proliferation GI50, A-431 cells (Table 6); type: cell-based
[12] = target: T9, EGFR[T790M/C797S/L858R] (Homo sapiens, UniProt P00533, C797S/L858R/T790M); assay: Inhibition of EGFR[T790M/C797S/L858R] biochemical enzymatic activity (HTRF); settings: EGFR T790M-C797S-L858R, 1 mM ATP, 1 h, room temperature, read-out: IC50 (nM) @T790M- C797S - L858R
T9 construct: purchased Carna Bio
T9 sequence (P00533 25-1210 T790M/C797S/L858R): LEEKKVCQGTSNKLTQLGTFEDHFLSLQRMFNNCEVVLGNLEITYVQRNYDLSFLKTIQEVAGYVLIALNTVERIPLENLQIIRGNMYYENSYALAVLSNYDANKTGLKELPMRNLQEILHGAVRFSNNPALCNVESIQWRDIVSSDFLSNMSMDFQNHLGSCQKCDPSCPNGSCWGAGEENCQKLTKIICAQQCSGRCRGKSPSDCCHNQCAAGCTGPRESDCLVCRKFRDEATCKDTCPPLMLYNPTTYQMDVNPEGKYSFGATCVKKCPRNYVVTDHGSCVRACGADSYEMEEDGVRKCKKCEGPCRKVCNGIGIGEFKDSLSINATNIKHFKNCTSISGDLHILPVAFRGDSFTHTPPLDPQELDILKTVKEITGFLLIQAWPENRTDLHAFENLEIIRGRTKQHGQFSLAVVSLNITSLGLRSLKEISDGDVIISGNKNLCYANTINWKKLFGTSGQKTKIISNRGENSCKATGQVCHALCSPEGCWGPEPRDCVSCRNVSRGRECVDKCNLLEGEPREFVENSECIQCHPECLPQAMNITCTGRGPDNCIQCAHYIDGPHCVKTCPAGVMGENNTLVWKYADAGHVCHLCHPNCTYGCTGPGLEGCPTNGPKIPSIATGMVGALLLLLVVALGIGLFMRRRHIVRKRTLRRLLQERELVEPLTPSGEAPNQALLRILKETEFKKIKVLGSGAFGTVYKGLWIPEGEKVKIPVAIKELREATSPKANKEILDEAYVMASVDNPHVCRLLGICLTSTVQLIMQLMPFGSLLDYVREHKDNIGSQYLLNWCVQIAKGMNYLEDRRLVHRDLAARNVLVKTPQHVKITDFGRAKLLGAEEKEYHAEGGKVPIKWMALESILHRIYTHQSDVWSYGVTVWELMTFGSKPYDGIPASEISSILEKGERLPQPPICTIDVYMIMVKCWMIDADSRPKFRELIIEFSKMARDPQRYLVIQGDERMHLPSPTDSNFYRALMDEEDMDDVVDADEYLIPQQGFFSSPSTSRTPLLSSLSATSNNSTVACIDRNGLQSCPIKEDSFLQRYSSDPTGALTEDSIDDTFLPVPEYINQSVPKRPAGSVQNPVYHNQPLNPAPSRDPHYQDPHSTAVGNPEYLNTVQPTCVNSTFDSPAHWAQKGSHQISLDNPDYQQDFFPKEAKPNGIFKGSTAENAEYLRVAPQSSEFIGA
Summary of the method: as §1

[13] = BaF3 cells, EGFR DEL19-C797S, read-out: DEL19-C797S/BaF3 GI50
[14] = BaF3 cells, EGFR DEL19-T790-C797S, read-out: DEL19-T790-C797S/BaF3 GI50
[15] = BaF3 cells, EGFR L858R, read-out: L858R/BaF3 GI50
[16] = BaF3 cells, EGFR L858R-C797S, read-out: L858R-C797S/BaF3 GI50
[17] = BaF3 cells, EGFR L858R-T790-C797S, read-out: L858R-T790-C797S/BaF3 GI50
[18] = BaF3 cells, EGFR L858R-T790M, read-out: L858R-T790M/BaF3 GI50
[19] = EGFR DEL19-T790M, read-out: DEL19-T790M GI50
[20] = Homo sapiens, A-431, A-431 cells

Row | SMILES | IC50 [1] [nM] | IC50 [2] [nM] | IC50 [3] [nM] | IC50 [4] [nM] | IC50 [5] [nM] | GI50 [6, 13] [nM] | GI50 [6, 14] [nM] | GI50 [6, 15] [nM] | GI50 [6, 16] [nM] | GI50 [6, 17] [nM] | GI50 [6, 18] [nM] | GI50 [6, 19] [nM] | IC50 [7] [nM] | GI50 [8] [nM] | IC50 [9] [nM] | IC50 [10] [nM] | GI50 ([11]; A-431 cells) [nM] | IC50 [12] [nM] | GI50 [11, 20] [nM]
1 | Cn1ncc2c1OCCN1CC3CCC(C3)(C1)n1c(nc3ccc(N4CCC(N5CC(F)C5)C4)cc31)NC(=O)c1cc-2c(=O)n(C)c1 (single isomer, unassigned) [Example A94B2, 5-[3-(3-Fluoroazetidin-1-yl)pyrrolidin-1-yl]-15,21-dimethyl-23-oxa-2,9,11,15,20,21,26-heptaazaheptacyclo[24.4.1.1^{1,28}.1^{13,17}.0^{2,10}.0^{3,8}.0^{18,22}]tritriaconta-3,5,7,9,13,17(33),18(22),19-octaene-12,16-dione] | 5.2 | 30 | 9.7 | 4.5 | 6.3 | 0.77 | 8.5 | 3.3 | 7.2 | 5.4 | 14 | 5 | 8.9 | 30 | 289 | 45 | 1980 | 9.7 | 
2 | Cn1ncc2c1OCCN1CC3CCC(C3)(C1)n1c(nc3ccc(N4CCC(N5CC(F)C5)C4)cc31)NC(=O)c1cc-2c(=O)n(C)c1 (single isomer, unassigned) [Example A94B, 5-[3-(3-Fluoroazetidin-1-yl)pyrrolidin-1-yl]-15,21-dimethyl-23-oxa-2,9,11,15,20,21,26-heptaazaheptacyclo[24.4.1.1^{1,28}.1^{13,17}.0^{2,10}.0^{3,8}.0^{18,22}]tritriaconta-3,5,7,9,13,17(33),18(22),19-octaene-12,16-dione] | 8.4 | 20 | 11 | 6.1 | 11 |  | 4.5 | 5.1 |  | 7.7 | 14 | 3.3 | 5.2 | 35 | 235 | 29 | 2880 | 9.5 | 
3 | CN(C)C1CCN(c2ccc3nc4n(c3c2)C23CCC(CN(CCOc5c(cnn5C)-c5cc(cn(C)c5=O)C(=O)N4)C2)C3)CC1(F)F (single isomer, unassigned) [Example A97A] | > 5000 | 3950 | > 5000 | 850 | > 5000 | 102 | 527 | 129 | 325 | 124 | 1000 | 459 | 1190 | 763 | > 5000 | 3030 | 5790 | > 5000 | 
4 | CN(C)C1CCN(c2ccc3nc4n(c3c2)C23CCC(CN(CCOc5c(cnn5C)-c5cc(cn(C)c5=O)C(=O)N4)C2)C3)CC1(F)F (single isomer, unassigned) [Example A97B] | 4.8 | 8.4 | 5.7 | 1.7 | 4.9 | 0.76 | 5.6 | 2 | 3 | 3.5 | 13 | 6.4 | 4.4 | 24 | 224 | 14 | 1450 | 4.7 | 
5 | CN1C2CC1CN(c1ccc3nc4n(c3c1)C13CCC(CN(CCOc5c(cnn5C)-c5cc(cn(C)c5=O)C(=O)N4)C1)C3)C2 (single isomer, unassigned) [Example A98B] | 2.7 | 4.1 | 2.7 | 1.3 | 2.9 | 0.64 | 1.5 | 0.54 | 2.8 | 1.1 | 3 | 1.5 | 1.8 | 7.6 | 21 | 3.3 |  | 2.3 | 280
6 | CN(C)C1CN(c2ccc3nc4n(c3c2)C23CCC(CN(CCOc5c(cnn5C)-c5cc(cn(C)c5=O)C(=O)N4)C2)C3)CC1(F)F (single isomer, unassigned) [Example A99B] | 7.7 | 59 | 11 | 4.6 | 8.4 | 1.2 | 15 |  | 11 | 4.6 |  | 7.9 | 3.5 | 46 | 3530 | 94 | 3640 | 10 | 
7 | Cn1ncc2c1OCCN1CC3CCC(C3)(C1)n1c(nc3ccc(N4CCC(N5CCOCC5)C4)cc31)NC(=O)c1cc-2c(=O)n(C)c1 (single isomer, unassigned) [Example A104A] | > 5000 | > 5000 | > 5000 | 1390 | > 5000 | 217 | 503 | 795 | 402 | 675 | 1000 | 473 | 1280 | 568 | > 5000 | 4680 |  | > 5000 | 1940
